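Following 48 hours of exposure in 96-well plates, responses at five concentrations were used to interpolate endpoints linearly. GI50 = concentration required for 50% inhibition of growth.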 Activity calls are given as the source filed them. No stated cut-off is given here; in the data, active = GI50 up to about 1.1 µM and inactive = higher.
Legend:
Assay in all cases: NCI tumour cell line growth inhibition, 48 h
HCT-15 = test system: HCT-15
LOX IMVI = test system: LOX IMVI
A549 = test system: A549
CAKI-1 = test system: CAKI-1
MCF7 = test system: MCF7
HOP-92 = test system: HOP-92
MDA-MB-435 = test system: MDA-MB-435
SF-539 = test system: SF-539
DU-145 = test system: DU-145
HOP-62 = test system: HOP-62
BT-549 = test system: BT-549
RPMI-8226 = test system: RPMI-8226
NCI-H522 = test system: NCI-H522
OVCAR-8 = test system: OVCAR-8
UACC-62 = test system: UACC-62
UO-31 = test system: UO-31
SR = test system: SR
NCI/ADR-RES = test system: NCI/ADR-RES
SF-295 = test system: SF-295
RXF 393 = test system: RXF 393

SMILES	GI50 (HCT-15)	GI50 (LOX IMVI)	GI50 (A549)	GI50 (CAKI-1)	GI50 (MCF7)	GI50 (HOP-92)	GI50 (MDA-MB-435)	GI50 (SF-539)	GI50 (DU-145)	GI50 (HOP-62)	GI50 (BT-549)	GI50 (RPMI-8226)	GI50 (NCI-H522)	GI50 (OVCAR-8)	GI50 (UACC-62)	GI50 (UO-31)	GI50 (SR)	GI50 (NCI/ADR-RES)	GI50 (SF-295)	GI50 (RXF 393)
O=C(CCN1CCCC1)Nc1ccc2sc3ccccc3c(=O)c2n1	11.5 µM	> 10 µM (inactive)	12.3 µM (inactive)	11.5 µM (inactive)	13 µM (inactive)	18.1 µM (inactive)	12.7 µM (inactive)	12.6 µM (inactive)	15.4 µM (inactive)	12.3 µM (inactive)	13.6 µM (inactive)	12 µM (inactive)	10.5 µM (inactive)	11.4 µM (inactive)	12.6 µM (inactive)	11.7 µM (inactive)	8.89 µM (inactive)	13.3 µM (inactive)	14.8 µM (inactive)	
Cc1cccc(/C=N/NC(=S)NCCc2ccccn2)n1	26.5 µM	18.3 µM (inactive)	36.6 µM (inactive)	26.7 µM (inactive)	37.2 µM (inactive)	22.3 µM (inactive)	27.4 µM (inactive)	26.7 µM (inactive)	22.3 µM (inactive)	18 µM (inactive)	35.2 µM (inactive)	> 53.2 µM (inactive)	34.8 µM (inactive)	27.9 µM (inactive)	22.5 µM (inactive)	16.9 µM (inactive)	28.4 µM (inactive)	31.8 µM (inactive)	24.6 µM (inactive)	
FC(F)(F)c1ccccc1C1SCC2=Nc3ccccc3CN21 (configuration not stated)	14.1 µM	15.1 µM (inactive)	14.5 µM (inactive)	24.9 µM (inactive)	13.6 µM (inactive)	17 µM (inactive)	22.5 µM (inactive)	10.8 µM (inactive)	12.8 µM (inactive)	11.1 µM (inactive)	19.3 µM (inactive)	24.8 µM (inactive)		16.9 µM (inactive)	13.2 µM (inactive)	11.8 µM (inactive)	21.2 µM (inactive)	18.3 µM (inactive)	13.1 µM (inactive)	10.2 µM (inactive)
Cc1c(S(=O)(=O)O)ccc(/N=N/c2c(O)c(C(=O)O)cc3ccccc23)c1Cl	> 100 µM	> 100 µM (inactive)	> 100 µM (inactive)	> 86.5 µM (inactive)	> 100 µM (inactive)	> 100 µM (inactive)	> 100 µM (inactive)		> 100 µM (inactive)	> 100 µM (inactive)	> 100 µM (inactive)	> 100 µM (inactive)	> 100 µM (inactive)	> 100 µM (inactive)	> 100 µM (inactive)	> 100 µM (inactive)	> 50.2 µM (inactive)	> 100 µM (inactive)	> 100 µM (inactive)	> 100 µM (inactive)
CC(=O)N1c2ccccc2C23CCN(C)CC4C(C)OCC(C4CC2=O)C13 (configuration not stated)	> 100 µM	> 100 µM (inactive)	> 100 µM (inactive)	> 100 µM (inactive)	> 100 µM (inactive)	> 100 µM (inactive)	> 100 µM (inactive)	> 100 µM (inactive)	> 100 µM (inactive)		> 100 µM (inactive)		> 100 µM (inactive)	> 100 µM (inactive)	> 100 µM (inactive)	> 100 µM (inactive)	> 100 µM (inactive)	> 100 µM (inactive)	> 100 µM (inactive)	> 100 µM (inactive)
COc1ccc(/C=C2\N/C(=N\N=C/C(O)C(O)C(O)C(O)CO)NC2=O)cc1 (configuration not stated)	> 100 µM	65.3 µM (inactive)	> 100 µM (inactive)	> 100 µM (inactive)	23.1 µM (inactive)	16.1 µM (inactive)	26.2 µM (inactive)	19.6 µM (inactive)	30.4 µM (inactive)	24.9 µM (inactive)	24.6 µM (inactive)	> 100 µM (inactive)	20.3 µM (inactive)	32.4 µM (inactive)		91 µM (inactive)	45.2 µM (inactive)	> 100 µM (inactive)	40.5 µM (inactive)	56.5 µM (inactive)
O=[N+]([O-])c1ccc2nc(Cl)n[n+]([O-])c2c1	13.4 µM	1.8 µM (inactive)	22 µM (inactive)	16 µM (inactive)	5.52 µM (inactive)		13.8 µM (inactive)	11.7 µM (inactive)	17.9 µM (inactive)	17.1 µM (inactive)	16.2 µM (inactive)	2.89 µM (inactive)	12 µM (inactive)	15.2 µM (inactive)	14 µM (inactive)	17 µM (inactive)	2.2 µM (inactive)	24.3 µM (inactive)	22.7 µM (inactive)	15.1 µM (inactive)
C/C(=N\O)c1ccc(Nc2nc3ccccc3c3occc23)cc1	2.55 µM	4.23 µM (inactive)	3.87 µM (inactive)	3.15 µM (inactive)	3.42 µM (inactive)	6.78 µM (inactive)	6.58 µM (inactive)	6.68 µM (inactive)	9.57 µM (inactive)	11.3 µM (inactive)	18.3 µM (inactive)	2.58 µM (inactive)	3.34 µM (inactive)	15.2 µM (inactive)	14.7 µM (inactive)	15.9 µM (inactive)	2.37 µM (inactive)	6.76 µM (inactive)	3.4 µM (inactive)	
OCC12C3C4C5C3C1C5C42 (configuration not stated)	> 100 µM	> 100 µM (inactive)	> 100 µM (inactive)	> 100 µM (inactive)	> 100 µM (inactive)	> 100 µM (inactive)	> 100 µM (inactive)	> 100 µM (inactive)	> 100 µM (inactive)	> 100 µM (inactive)	> 100 µM (inactive)		> 100 µM (inactive)	> 100 µM (inactive)	> 100 µM (inactive)	> 100 µM (inactive)	> 100 µM (inactive)	> 100 µM (inactive)	> 100 µM (inactive)	> 100 µM (inactive)
N#Cc1c(N)nc2[nH]nc(N)c2c1-c1ccc(Cl)cc1	3.82 µM	2.83 µM (inactive)	5.66 µM (inactive)	3.02 µM (inactive)	3.03 µM (inactive)	1.81 µM (inactive)	5.85 µM (inactive)	6.38 µM (inactive)	4.8 µM (inactive)	6.75 µM (inactive)	2.73 µM (inactive)		2.56 µM (inactive)	6.75 µM (inactive)	1.42 µM (inactive)	2.42 µM (inactive)	> 22.6 µM (inactive)	7.66 µM (inactive)	6.03 µM (inactive)	2.11 µM (inactive)
COC(=O)[C@@H](Cc1ccccc1)N1O[C@]12CCCC[C@@H]2NC(=O)OC(C)(C)C (some centres not stated)	18.4 µM		29.2 µM (inactive)	35.8 µM (inactive)	15.2 µM (inactive)	21.3 µM (inactive)	25.8 µM (inactive)	19.2 µM (inactive)	29.4 µM (inactive)	18.6 µM (inactive)	18.1 µM (inactive)	44.5 µM (inactive)	16.7 µM (inactive)		23.2 µM (inactive)	14.5 µM (inactive)	29.3 µM (inactive)	23.1 µM (inactive)	55.6 µM (inactive)	25 µM (inactive)

Reference: ChEMBL document CHEMBL1201862, “PubChem BioAssay data set” (2004)
